Test results taken from patent US20080113926A1, “9A-Carbamoyl-Y-Aminopropyl- And 9A-Thiocabamoyl-Y-Aminopropyl-Azalides With Antimalarial Activity” (priority 2005, published 2008).
In brackets after ≈: the same amount, converted by molar mass.

Legend:
[1] = tested on: Plasmodium falciparum TM91C235; test: In vitro antimalarial [3H]-hypoxanthine incorporation serial dilution assay, TM91C235; format: cell-based; conditions: Plasmodium falciparum; P. falciparum TM91C235, parasites exposed for 72 hours
[2] = tested on: Plasmodium falciparum clone CDC/Sierra Leone I (D-6); test: In vitro antimalarial [3H]-hypoxanthine incorporation serial dilution assay, D6; format: cell-based; conditions: Plasmodium falciparum; P. falciparum D6, parasites exposed for 72 hours
Description: (§1) The in vitro screens for intrinsic antimalarial activity were based on modifications of the procedures described by Desjardins R E, Canfield C J, Haynes J D, Chulay J D. (Quantitative assessment of antimalarial activity in vitro by a semiautomated microdilution technique. Antimicrob Agents Chemother. 1979 December; 16(6):710-8), Chulay J D, Haynes J D, Diggs C L. (Plasmodium falciparum: Assessment of in vitro growth by [3H]hypoxanthine incorporation. Exp. Parasitol. 1983 55:138-146), and Milhous W K, Weatherly N F, Bowdre J H, Desjardins R E. (In vitro activities of and mechanisms of resistance to antifol antimalarial drugs. Antimicrob Agents Chemother. 1985 April; 27(4):525-30). The system was limited to the assessment of the intrinsic activity against the erythrocytic asexual life cycle (blood schizontocides). Two Plasmodium falciparum clones from CDC/Indochina III (W-2) and CDC/Sierra Leone I (D-6) (Oduola A M, Weatherly N F, Bowdre J H, Desjardins R E. Plasmodium falciparum: cloning by single-erythrocyte micromanipulation and heterogeneity in vitro. Exp Parasitol. 1988 66(1):86-95) were used for all assays. TM91C235, a multiple drug resistant isolate from Thailand, was used for the prescreening assay. W-2 is resistant to chloroquine, quinine, and pyrimethamine and susceptible to mefloquine. D-6 tends to be more resistant to mefloquine and susceptible to chloroquine, quinine, and pyrimethamine. All documents cited in this paragraph are incorporated by reference in their entirety.
(§2) All parasites were maintained in continuous long term cultures in RPMI-1640 medium supplemented with 6% washed human A positive (A+) (erythrocytes, 25 mM Hepes, […], and 10% heat inactivated A+ human plasma or ALBUMAX® (lipid-rich bovine serum albumin; Invitrogen, Carlsbad, Calif.). All cultures and assays were conducted at 37° C. under an atmosphere of 5% CO2 and 5% O2, with a balance of N2.
(§3) The prescreening assay uses TM91C235 diluted at a 0.4% parasitemia in a 1% hematocrit in folic acid free and p-aminobenzoic acid free media RPMI-1640 and ALBUMAX®. One mg of the compound is typically dissolved in 100 μl of dimethyl sulfoxide (DMSO). The compound is further diluted in culture medium (FF) with ALBUMAX® for the first initial starting concentration. The rest of the stock drug solution was kept at −70° C. The isolate was preexposed, in duplicate, at three concentrations (25,000 ng/ml, 2,500 ng/ml, and 25 ng/ml) of the test compound for 48 hr in a 96-well microtiter plate (MTP) using the BIOMEK® 2000 automated laboratory workstation. Each MTP contains chloroquine as control to assess the relative activity of the compound and to monitor the response of TM91C235.
(§4) After the preincubation, [^3H]-hypoxanthine was added to each well of the MTP. (The assay relies on the incorporation of radiolabeled hypoxanthine by the parasites, which indicates reproduction, and inhibition of isotope incorporation was attributed to activity of known or candidate antimalarial drugs). After 72 hr of total incubation time, the MTP were frozen to lyse the erythrocytes and parasites. The parasite DNA was recovered by harvesting the lysate onto glass-fiber filter plates using a Packard FilterMate™ Cell Harvester. The radioactivity was counted on a Packard TopCount™ microplate scintillation counter. The results were recorded as counts per minutes (CPM) per well at each drug concentration divided by the arithmetic mean of the CPM from the three untreated infection parasite control wells.
(§5) The serial dilution assay was conducted using the same assay conditions and stock solution of the compound used for the preliminary screen, described above. Both the D-6 and the W-2 clones were used. The compounds were diluted two-fold over 11 different concentration ranges with a starting concentration that was based on the preliminary screen. […]

[3] = tested on: Plasmodium falciparum clone CDC/Indochina III (W-2); test: In vitro antimalarial [3H]-hypoxanthine incorporation serial dilution assay, W2; format: cell-based; conditions: Plasmodium falciparum, W2, 72 h, P. falciparum W2, parasites exposed for 72 hours
Description: as §1, §2, §3, §4, §5

[4] = tested on: Plasmodium falciparum; conditions: non-immune patients, as compared to controls; cited from earlier work
[5] = tested on: Plasmodium vivax; conditions: non-immune patients, as compared to controls; cited from earlier work
[6] = tested on: Plasmodium cynomolgi; conditions: rhesus monkey; cited from earlier work
[7] = tested on: Plasmodium berghei; conditions: cited from earlier work
[8] = tested on: Plasmodium yoelii nigeriensis; conditions: cited from earlier work

Compound	IC50 [1] [µg/mL]	IC50 [2] [µg/mL]	IC50 [3] [µg/mL]	prophylactic efficacy for Plasmodium falciparum [4] [%]	prophylactic efficacy for Plasmodium vivax [5] [%]	efficacy in monkey model [6]	activity in mouse model, Plasmodium berghei [7]	activity in mouse model, Plasmodium yoelii nigeriensis [8]
CC[C@H]1OC(=O)[C@H](C)[C@@H](O[C@H]2C[C@@](C)(OC)[C@@H](O)[C@H](C)O2)[C@H](C)[C@@H](O[C@@H]2O[C@H](C)C[C@H](N(C)C)[C@H]2O)[C@](C)(O)C[C@@H](C)CN(C)[C@H](C)[C@@H](O)[C@]1(C)O [azithromycin, reference compound]	1.62 (≈ 2.16 µM)	0.797 (≈ 1.06 µM)	1.76 (≈ 2.35 µM)	71.6	98.9	active		
CC[C@H]1OC(=O)[C@H](C)[C@@H](O[C@H]2C[C@@](C)(OC)[C@@H](O)[C@H](C)O2)[C@H](C)[C@@H](O[C@@H]2O[C@H](C)C[C@H](N(C)C)[C@H]2O)[C@](C)(O)C[C@@H](C)CN(CCCN(CCC#N)C(=O)NC(C)C)[C@H](C)[C@@H](O)[C@]1(C)O [Compound 19]	1.19 (≈ 1.28 µM)	> 0.797	> 1.76					
CC[C@H]1OC(=O)[C@H](C)[C@@H](O[C@H]2C[C@@](C)(OC)[C@@H](O)[C@H](C)O2)[C@H](C)[C@@H](O[C@@H]2O[C@H](C)C[C@H](N(C)C)[C@H]2O)[C@](C)(O)C[C@@H](C)CN(CCCN(CCC#N)C(=S)NCc2ccccc2)[C@H](C)[C@@H](O)[C@]1(C)O [Compound 12]	0.163 (≈ 0.164 µM)	0.233 (≈ 0.235 µM)	0.2 (≈ 0.201 µM)					
CC[C@H]1OC(=O)[C@H](C)[C@@H](O[C@H]2C[C@@](C)(OC)[C@@H](O)[C@H](C)O2)[C@H](C)[C@@H](O[C@@H]2O[C@H](C)C[C@H](N(C)C)[C@H]2O)[C@](C)(O)C[C@@H](C)CN(CCCNC(=O)NCc2ccccc2)[C@H](C)[C@@H](O)[C@]1(C)O [Compound 17]	0.278 (≈ 0.3 µM)	0.566 (≈ 0.612 µM)	0.351 (≈ 0.379 µM)					
CC[C@H]1OC(=O)[C@H](C)[C@@H](O)[C@H](C)[C@@H](O[C@@H]2O[C@H](C)C[C@H](N(C)C)[C@H]2O)[C@](C)(O)C[C@@H](C)CN(CCCNC(=O)Nc2cccc3ccccc23)[C@H](C)[C@@H](O)[C@]1(C)O [Compound 30]	0.508 (≈ 0.633 µM)	> 0.797	0.471 (≈ 0.586 µM)					
CC[C@H]1OC(=O)[C@H](C)[C@@H](O[C@H]2C[C@@](C)(OC)[C@@H](O)[C@H](C)O2)[C@H](C)[C@@H](O[C@@H]2O[C@H](C)C[C@H](N(C)C)[C@H]2O)[C@](C)(O)C[C@@H](C)CN(CCCN(CCC#N)C(=O)NCc2ccccc2)[C@H](C)[C@@H](O)[C@]1(C)O [Compound 18]	0.522 (≈ 0.534 µM)	0.776 (≈ 0.793 µM)	0.405 (≈ 0.414 µM)					
CC[C@H]1OC(=O)[C@H](C)[C@@H](O[C@H]2C[C@@](C)(OC)[C@@H](O)[C@H](C)O2)[C@H](C)[C@@H](O[C@@H]2O[C@H](C)C[C@H](N(C)C)[C@H]2O)[C@](C)(O)C[C@@H](C)CN(CCCNC(=O)Nc2ccc3ccccc3c2)[C@H](C)[C@@H](O)[C@]1(C)O [Compound 1]	0.0832 (≈ 0.0866 µM)	0.145 (≈ 0.151 µM)	0.141 (≈ 0.146 µM)					
CC[C@H]1OC(=O)[C@H](C)[C@@H](O[C@H]2C[C@@](C)(OC)[C@@H](O)[C@H](C)O2)[C@H](C)[C@@H](O[C@@H]2O[C@H](C)C[C@H](N(C)C)[C@H]2O)[C@](C)(O)C[C@@H](C)CN(CCCNC(=S)Nc2cccc3ccccc23)[C@H](C)[C@@H](O)[C@]1(C)O [Compound 9]	0.159 (≈ 0.163 µM)	0.144 (≈ 0.147 µM)	0.17 (≈ 0.174 µM)					
CC[C@H]1OC(=O)[C@H](C)[C@@H](O[C@H]2C[C@@](C)(OC)[C@@H](O)[C@H](C)O2)[C@H](C)[C@@H](O[C@@H]2O[C@H](C)C[C@H](N(C)C)[C@H]2O)[C@](C)(O)C[C@@H](C)CN(CCCN(CCC#N)C(=O)NC(C)c2cccc3ccccc23)[C@H](C)[C@@H](O)[C@]1(C)O (stereo partly drawn) [Compound 10]	0.16 (≈ 0.153 µM)	0.254 (≈ 0.244 µM)	0.308 (≈ 0.296 µM)					
CC[C@H]1OC(=O)[C@H](C)[C@@H](O[C@H]2C[C@@](C)(OC)[C@@H](O)[C@H](C)O2)[C@H](C)[C@@H](O[C@@H]2O[C@H](C)C[C@H](N(C)C)[C@H]2O)[C@](C)(O)C[C@@H](C)CN(CCCN(CCC#N)C(=S)NCCc2ccccc2)[C@H](C)[C@@H](O)[C@]1(C)O [Compound 5]	0.0732 (≈ 0.0726 µM)	0.091 (≈ 0.0902 µM)	0.169 (≈ 0.167 µM)					
CC[C@H]1OC(=O)[C@H](C)[C@@H](O[C@H]2C[C@@](C)(OC)[C@@H](O)[C@H](C)O2)[C@H](C)[C@@H](O[C@@H]2O[C@H](C)C[C@H](N(C)C)[C@H]2O)[C@](C)(O)C[C@@H](C)CN(CCCNC(=O)Nc2ccccc2C(F)(F)F)[C@H](C)[C@@H](O)[C@]1(C)O [Compound 2]	0.23 (≈ 0.234 µM)	0.311 (≈ 0.318 µM)	0.36 (≈ 0.368 µM)					
midecamycinin						no efficacy	active	active
CC[C@H]1OC(=O)[C@H](C)[C@@H](O[C@H]2C[C@@](C)(OC)[C@@H](O)[C@H](C)O2)[C@H](C)[C@@H](O[C@@H]2O[C@H](C)C[C@H](N(C)C)[C@H]2O)[C@](C)(O)C[C@@H](C)CN(CCCNC(=S)NCc2ccccc2)[C@H](C)[C@@H](O)[C@]1(C)O [Compound 13]	0.189 (≈ 0.2 µM)	0.291 (≈ 0.309 µM)	0.18 (≈ 0.191 µM)					
CC[C@H]1OC(=O)[C@H](C)[C@@H](O[C@H]2C[C@@](C)(OC)[C@@H](O)[C@H](C)O2)[C@H](C)[C@@H](O[C@@H]2O[C@H](C)C[C@H](N(C)C)[C@H]2O)[C@](C)(O)C[C@@H](C)CN(CCCN(CCC#N)C(=O)Nc2cccc3ccccc23)[C@H](C)[C@@H](O)[C@]1(C)O [Compound 15]	0.263 (≈ 0.259 µM)	0.539 (≈ 0.531 µM)	1.42 (≈ 1.4 µM)					
CC[C@H]1OC(=O)[C@H](C)[C@@H](O[C@H]2C[C@@](C)(OC)[C@@H](O)[C@H](C)O2)[C@H](C)[C@@H](O[C@@H]2O[C@H](C)C[C@H](N(C)C)[C@H]2O)[C@](C)(O)C[C@@H](C)CN(CCCN(CCC#N)C(=O)Nc2ccccc2C(F)(F)F)[C@H](C)[C@@H](O)[C@]1(C)O [Compound 23]	0.153 (≈ 0.148 µM)	0.535 (≈ 0.518 µM)	0.0626 (≈ 0.0606 µM)					
CC[C@H]1OC(=O)[C@H](C)[C@@H](O[C@H]2C[C@@](C)(O)[C@@H](O)[C@H](C)O2)[C@H](C)[C@@H](O[C@@H]2O[C@H](C)C[C@H](N(C)C)[C@H]2O)[C@](C)(O)C[C@@H](C)CN(CCCNC(=O)Nc2cccc3ccccc23)[C@H](C)[C@@H](O)[C@]1(C)O [Compound 8]	0.143 (≈ 0.151 µM)	0.268 (≈ 0.282 µM)	0.176 (≈ 0.186 µM)					
